These results are taken from patent US20120009277A1, “METHOD FOR SELECTION OF NOVEL ANTI-CANCER HERBS USING CHEMINFORMATIC TOOLS” (priority 2010, published 2012).

Format in all cases: cell-based
The subject of assay [1] is A2780/cp (human ovarian carcinoma, resistant to cisplatin). Description: MTT cytotoxicity assay on A2780/cp cells, single agents and cisplatin combinations. Particulars: cisplatin alone, 24 hr. As for the experimental part:
(§1) Anticancer drug resistant cancerous cell lines; A2780/cp (human ovarian carcinoma, resistant to cisplatin) NCBI C454, ACHN (human renal adenocarcinoma) NCBI C206, and normal cell line HF2 (human fetal fibroblast) NCBI C336 herein used as a cell negative control are obtained from National Cell Bank of Iran, Pasture Institute of Iran (Tehran). These cells are maintained in RPMI 1640 medium supplemented with 10% FCS in a humidified incubator (37° C. and 5% CO2).
(§2) Cells are cultured in RPMI-1640 medium supplemented with 10% heat inactivated FCS, 2 mM glutamine, penicillin ([…]) and streptomycin (100 μg/ml) at 37° C. in an incubator containing 5% CO2.
(§3) Harvested cells with trypsin (0.25%) are counted by Neubauer slide and then are seeded into 96-well plates (104 cell/well). […] The insoluble formazan produced is dissolved in solution containing 100 μl DMSO (Dimethyl sulfoxide) and Optical Density (absorbance) is read against blank reagent with Multiwell scanning spectrophotometer (ELISA reader, Organon Tekninka, the Netherlands) at a wavelength of 545 nm. The percentage of cytotoxicity is calculated according to following equations: […]
(Tetrazolium dyes change colour on reduction, which living cells bring about.)

Assay [2] has as its system ACHN (human renal adenocarcinoma). Description: MTT cytotoxicity assay on ACHN cells, single agents and doxorubicin combinations. Particulars: doxorubicin alone, 24 hr. As to the method:
as §1, §2, §3

Assay [3] deals with HF2 (human fetal fibroblast). Kind of assay: MTT cytotoxicity assay on HF2 normal cells, single agents and doxorubicin combinations. To be noted: doxorubicin alone, 24 hr. As for the experimental part:
as §1, §2, §3

What is called IC50 is the midpoint of a concentration-inhibition curve. As to `N.N.[Cl][Pt][Cl]` [Cisplatin], the IC50 in assay [1] worked out at 42.5 µM.

On to `COc1cccc2c1C(=O)c1c(O)c3c(c(O)c1C2=O)C[C@@](O)(C(=O)CO)C[C@@H]3O[C@H]1C[C@H](N)[C@H](O)[C@H](C)O1` [Doxorubicin], for which the half-maximal inhibitory concentration (IC50) worked out at 3.92 µM in assay [2] and 1.31 µM in assay [3].
